Results: ChEMBL document CHEMBL1130853, “Synthesis and biological properties of new 1 beta-methylcarbapenems” (Bioorg Med Chem Lett, 1998)
In brackets after ≈: the same amount, converted by molar mass.

What was measured:
Enterococcus faecium = experiment: Antibacterial activity against Streptococcus faecium MD 8b; assay type: functional
Escherichia coli = experiment: microbe, parasite or virus in culture; assay type: functional
Description: Antibacterial activity against Escherichia coli 1507E

Staphylococcus aureus = experiment: Antibacterial activity against Staphylococcus aureus SG 511; assay type: functional
Klebsiella aerogenes = experiment: Antibacterial activity against Klebsiella aerogenes 1522E; assay type: functional
Streptococcus pyogenes = experiment: Antibacterial activity against Streptococcus pyogenes 77A; assay type: functional
Pseudomonas aeruginosa [1] = experiment: microbe, parasite or virus in culture; assay type: functional
Description: Antibacterial activity against Pseudomonas aeruginosa 1771M

Pseudomonas aeruginosa [2] = experiment: microbe, parasite or virus in culture; assay type: functional; remark: listed apart in the source
Description: Compound was evaluated for antibacterial activity against Pseudomonas aeruginosa 1592E

[3] = Antibacterial activity against Enterobacter cloacae 1321E; assay type: functional
Salmonella typhimurium = experiment: Antibacterial activity against Salmonella Typhimurium; assay type: functional, Salmonella enterica subsp. enterica serovar Typhimurium; conditions: Salmonella enterica
[4] = molecular target: T1, Dipeptidase 1 (Sus scrofa) (UniProt P22412); experiment: Compound was evaluated for relative rate of hydrolysis to imipenem by partially purified porcine renal Dehydropeptidase-1; set-up: scale not given: the % may be the effect or the level left
T1 sequence (whole entry): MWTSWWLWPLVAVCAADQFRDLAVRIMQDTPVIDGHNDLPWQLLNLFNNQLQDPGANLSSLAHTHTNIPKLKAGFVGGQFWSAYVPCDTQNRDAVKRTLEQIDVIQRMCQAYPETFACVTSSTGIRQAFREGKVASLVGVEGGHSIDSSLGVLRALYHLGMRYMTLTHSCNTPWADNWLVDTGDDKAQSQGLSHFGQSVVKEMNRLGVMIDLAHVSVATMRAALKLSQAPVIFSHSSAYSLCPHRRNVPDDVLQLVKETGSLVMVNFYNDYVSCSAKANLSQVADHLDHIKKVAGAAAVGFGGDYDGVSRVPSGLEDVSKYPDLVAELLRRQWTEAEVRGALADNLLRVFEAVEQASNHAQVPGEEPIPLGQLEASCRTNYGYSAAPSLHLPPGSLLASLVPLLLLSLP

Compound	MIC (Enterococcus faecium)	MIC (Escherichia coli)	MIC (Staphylococcus aureus)	MIC (Klebsiella aerogenes)	MIC (Streptococcus pyogenes)	MIC (Pseudomonas aeruginosa [1])	MIC (Pseudomonas aeruginosa [2])	MIC [3]	MIC (Salmonella typhimurium)	Stability [4]
C[C@@H](O)[C@H]1C(=O)N2C(C(=O)O)=C(S[C@@H]3CN[C@H](C(=O)NCCC(=O)O)C3)[C@H](C)[C@H]12	50 µg/mL (≈ 117 µM)	0.049 µg/mL (≈ 0.115 µM)	1.56 µg/mL (≈ 3.66 µM)	0.098 µg/mL (≈ 0.229 µM)	49 ng/mL (≈ 0.115 µM)	3.12 µg/mL (≈ 7.31 µM)	6.25 µg/mL (≈ 14.6 µM)	0.049 µg/mL (≈ 0.115 µM)	0.098 µg/mL (≈ 0.229 µM)	–
CNS(=O)(=O)CCNC(=O)[C@@H]1C[C@H](SC2=C(C(=O)O)N3C(=O)[C@H]([C@@H](C)O)[C@H]3[C@H]2C)CN1	12.5 µg/mL (≈ 26.2 µM)	0.025 µg/mL (≈ 0.0525 µM)	0.195 µg/mL (≈ 0.409 µM)	0.049 µg/mL (≈ 0.103 µM)	13 ng/mL (≈ 0.0273 µM)	0.369 µg/mL (≈ 0.774 µM)	0.391 µg/mL (≈ 0.82 µM)	0.025 µg/mL (≈ 0.0525 µM)	0.025 µg/mL (≈ 0.0525 µM)	–
C[C@@H](O)[C@H]1C(=O)N2C(C(=O)O)=C(S[C@@H]3CN[C@H](C(=O)NCCS(=O)(=O)N(C)CCO)C3)[C@H](C)[C@H]12	12.5 µg/mL (≈ 24 µM)	0.025 µg/mL (≈ 0.048 µM)	0.391 µg/mL (≈ 0.751 µM)	0.049 µg/mL (≈ 0.0941 µM)	13 ng/mL (≈ 0.025 µM)	0.781 µg/mL (≈ 1.5 µM)	1.56 µg/mL (≈ 3 µM)	0.025 µg/mL (≈ 0.048 µM)	0.049 µg/mL (≈ 0.0941 µM)	–
C[C@@H](O)[C@H]1C(=O)N2C(C(=O)O)=C(S[C@@H]3CN[C@H](C(=O)NCCS(=O)(=O)N4CCCC4)C3)[C@H](C)[C@H]12	6.25 µg/mL (≈ 12.1 µM)	0.013 µg/mL (≈ 0.0252 µM)	0.098 µg/mL (≈ 0.19 µM)	0.025 µg/mL (≈ 0.0484 µM)	4 ng/mL (≈ 0.00774 µM)	0.391 µg/mL (≈ 0.757 µM)	6.25 µg/mL (≈ 12.1 µM)	0.013 µg/mL (≈ 0.0252 µM)	0.025 µg/mL (≈ 0.0484 µM)	–
COC(=O)CCNC(=O)[C@@H]1C[C@H](SC2=C(C(=O)O)N3C(=O)[C@H]([C@@H](C)O)[C@H]3[C@H]2C)CN1	12.5 µg/mL (≈ 28.3 µM)	0.025 µg/mL (≈ 0.0566 µM)	0.195 µg/mL (≈ 0.442 µM)	0.049 µg/mL (≈ 0.111 µM)	7 ng/mL (≈ 0.0159 µM)	0.195 µg/mL (≈ 0.442 µM)	1.56 µg/mL (≈ 3.54 µM)	0.025 µg/mL (≈ 0.0566 µM)	0.049 µg/mL (≈ 0.111 µM)	–
C[C@@H](O)[C@H]1C(=O)N2C(C(=O)O)=C(S[C@@H]3CN[C@H](C(=O)NCCC(=O)NCCO)C3)[C@H](C)[C@H]12	12.5 µg/mL (≈ 26.6 µM)	0.049 µg/mL (≈ 0.104 µM)	0.391 µg/mL (≈ 0.831 µM)	0.098 µg/mL (≈ 0.208 µM)	7 ng/mL (≈ 0.0149 µM)	0.391 µg/mL (≈ 0.831 µM)	0.391 µg/mL (≈ 0.831 µM)	0.025 µg/mL (≈ 0.0531 µM)	0.098 µg/mL (≈ 0.208 µM)	–
C[C@@H](O)[C@H]1C(=O)N2C(C(=O)O)=C(S[C@@H]3CN[C@H](C(=O)NCCC(N)=O)C3)[C@H](C)[C@H]12	12.5 µg/mL (≈ 29.3 µM)	0.025 µg/mL (≈ 0.0586 µM)	0.195 µg/mL (≈ 0.457 µM)	0.049 µg/mL (≈ 0.115 µM)	7 ng/mL (≈ 0.0164 µM)	0.195 µg/mL (≈ 0.457 µM)	0.391 µg/mL (≈ 0.917 µM)	0.025 µg/mL (≈ 0.0586 µM)	0.049 µg/mL (≈ 0.115 µM)	2600%
C[C@@H](O)[C@H]1C(=O)N2C(C(=O)O)=C(S[C@@H]3CN[C@H](C(=O)NCCS(=O)(=O)N(C)C)C3)[C@H](C)[C@H]12	12.5 µg/mL (≈ 25.5 µM)	0.025 µg/mL (≈ 0.051 µM)	0.195 µg/mL (≈ 0.397 µM)	0.049 µg/mL (≈ 0.0999 µM)	7 ng/mL (≈ 0.0143 µM)	0.195 µg/mL (≈ 0.397 µM)	1.56 µg/mL (≈ 3.19 µM)	0.025 µg/mL (≈ 0.051 µM)	0.049 µg/mL (≈ 0.0999 µM)	–
CNC(=O)CCNC(=O)[C@@H]1C[C@H](SC2=C(C(=O)O)N3C(=O)[C@H]([C@@H](C)O)[C@H]3[C@H]2C)CN1	12.5 µg/mL (≈ 28.4 µM)	0.025 µg/mL (≈ 0.0568 µM)	0.391 µg/mL (≈ 0.888 µM)	0.049 µg/mL (≈ 0.111 µM)	13 ng/mL (≈ 0.0295 µM)	0.391 µg/mL (≈ 0.888 µM)	0.781 µg/mL (≈ 1.77 µM)	0.025 µg/mL (≈ 0.0568 µM)	0.049 µg/mL (≈ 0.111 µM)	–
